Laboratory results reported in patent EP4635945A1, “CRYSTAL FORM OF PROXIMOD, PREPARATION METHOD THEREFOR, AND USE THEREOF” (Jiankuan (Suzhou) Biotechnology Co., Ltd, priority 2022, dated 2024).

Test: Crystal form stability on vacuum drying (XRPD)
Type: physicochemical
Experimental: After the above sample was dried under vacuum at 50 °C for 6 hours, the XRPD detection was performed. […] The TGA curves of the sample of the crystal form D of proximod which was dried and the sample of the crystal form D of proximod which was dried and placed at room temperature for two days are shown in FIGS. 16 and 17, respectively. […] The theoretical weight loss of the proximod […] is 6.1%. […] Based on the above experimental results, it is inferred that the crystal form D is an unstable sesquihydrate. It is inferred that the crystal form D is an unstable sesquihydrate and is prone to crystal transformation during drying and storage, making it difficult to prepare a pure phase.
The obtained wet sample was subjected to the XRPD detection. The obtained solid was the crystal form F of the present application, and the X-ray powder diffraction (XRPD) pattern of the crystal form F is shown in FIG. 21. After the wet sample was dried under vacuum at 50 °C for 2 hours, the XRPD detection was performed.

| SMILES | Crystal form after drying (XRPD) (wet sample dried under vacuum at 50 °C for 2 hours) | Crystal form after drying (XRPD) (dried under vacuum at 50 °C for 6 hours) |
| --- | --- | --- |
| CCCc1nc(-c2ccc(-c3ccc(CCC(N)(CO)CO)cc3)cc2)co1.Cl [Crystal form F, 2-amino-2-{2-(4'-(2-propyloxazol-4-yl)-[1,1'-biphenyl]-4-yl)ethyl}-1,3-propanediol hydrochloride] | partially crystal transformed into the crystal form A |  |
| CCCc1nc(-c2ccc(-c3ccc(CCC(N)(CO)CO)cc3)cc2)co1.Cl [Crystal form D, 2-amino-2-{2-(4'-(2-propyloxazol-4-yl)-[1,1'-biphenyl]-4-yl)ethyl}-1,3-propanediol hydrochloride] |  | partially crystal transformed into the crystal form A |
